Measurements taken from US11059780B2, “Substituted pyrrolidine compound and use thereof” (Takeda Pharmaceutical Company Limited, priority 2017, dated 2021).

Biological target: T1, human orexin type 2 receptor (hOX2R) (Homo sapiens, UniProt O43614)
T1 construct: expressed in transfected cells
T1 sequence (O43614 1-444): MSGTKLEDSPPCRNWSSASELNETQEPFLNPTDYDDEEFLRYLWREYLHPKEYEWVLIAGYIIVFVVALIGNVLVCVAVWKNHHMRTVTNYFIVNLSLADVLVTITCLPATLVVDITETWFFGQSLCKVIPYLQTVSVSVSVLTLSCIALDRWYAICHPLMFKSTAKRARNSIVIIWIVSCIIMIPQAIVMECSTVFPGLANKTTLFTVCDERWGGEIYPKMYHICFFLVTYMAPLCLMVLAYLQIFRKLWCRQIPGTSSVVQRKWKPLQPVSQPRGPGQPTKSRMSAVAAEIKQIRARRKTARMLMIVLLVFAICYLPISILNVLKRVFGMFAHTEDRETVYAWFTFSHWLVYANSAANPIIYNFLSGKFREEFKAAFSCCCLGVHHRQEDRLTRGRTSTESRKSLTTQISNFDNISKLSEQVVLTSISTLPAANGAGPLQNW
Test: Measurement of orexin type 2 receptor agonist activity (Fluo-4 calcium fluorescence, CHO cells forcibly expressing human OX2 receptor)
Assay type: cell-based
Conditions: test compound 3 μM, DMSO = 0%, orexin A (human) 10 nM = 100%
Excerpt: Experimental Example 1: Obtainment of Cell Stably Expressing Human Orexin Type 2 Receptor (hOX2R)
To obtain a cell clone stably expressing human orexin type 2 receptor, human orexin type 2 receptor cDNA was inserted into pcDNA3.1(+) plasmid vector (Invitrogen), and a plasmid DNA for expression of human orexin type 2 receptor (pcDNA3.1(+)/hOX2R) was cloned. The plasmid DNA was introduced into CHO-dhfr cell by an electroporation method, and human orexin type 2 receptor expressing clone cells were obtained by limiting dilution method by using G418 drug resistance as a selection marker.
Experimental Example 2: Measurement of Orexin Type 2 Receptor Agonist Activity
CHO cells forcibly expressing human OX2 receptor were seeded in each well of 384 well black transparent bottom plate (BD Falcon) at 7,500 cells/well, and cultured for one day in a 5% CO2 incubator at 37° C. After removal of the medium in the cell plate, assay buffer A containing a calcium indicator (HBSS (Life Technologies), 20 mM HEPES (Life Technologies), 0.1% BSA (Wako Pure Chemical Industries, Ltd.), 2.5 μg/mL Fluo-4 AM (DOJINDO Chemical), 0.08% Pluronic F127 (DOJINDO Chemical), 1.25 mM probenecid (DOJINDO Chemical)) was added at 30 μL/well. The plate was stood for 30 min in a 5% CO2 incubator at 37° C., and further stood at room temperature for 30 min. A test compound prepared by diluting with assay buffer B (HBSS, 20 mM HEPES, 0.1% BSA) was added at 10 μL/well, and the fluorescence value was measured by FDSSpCELL (Hamamatsu Photonics K.K.) every one sec for 1 min, and thereafter every two sec for 1 min 40 sec. The activity (%) of the test compound was calculated assuming that variation in the fluorescence value when DMSO was added instead of the test compound was 0% […], and variation in the fluorescence value when orexin A (human) (PEPTIDE INSTITUTE, INC.) was added at the final concentration of 10 nM was 100% […]. The activity of each compound at the concentration of 3 μM was shown below.

| SMILES | OX2R agonist activity (3 μM, %) |
| --- | --- |
| CO[C@@H]1CN(C(=O)c2cc(C)ccc2C)C[C@H]1Oc1cccc(NS(=O)(=O)N2CCC2)c1 (relative stereo) [Example 48, trans-N-(3-((1-(2,5-dimethylbenzoyl)-4-methoxypyrrolidin-3-yl)oxy)phenyl)azetidine-1-sulfonamide] | 62% |
| CO[C@@H]1CN(C(=O)c2ccccc2C2CC2)C[C@H]1Oc1cccc(CS(=O)(=O)N(C)C2CCOCC2)c1 (relative stereo) [Example 153, trans-1-(3-((1-(2-cyclopropylbenzoyl)-4-methoxypyrrolidin-3-yl)oxy)phenyl)-N-methyl-N-(tetrahydro-2H-pyran-4-yl)methanesulfonamide] | 105% |
| Cc1ccc(C)c(C(=O)N2CC[C@H](Oc3cccc(CS(=O)(=O)N4CCCC4c4ccccn4)c3)C2)c1 (stereo partly drawn) [Example 25, (2,5-dimethylphenyl)((3S)-3-(3-(((2-(pyridin-2-yl)pyrrolidin-1-yl)sulfonyl)methyl)phenoxy)pyrrolidin-1-yl)methanone] | 29% |
| CO[C@@H]1CN(C(=O)c2c(C)cccc2C2CC2)C[C@H]1Oc1cccc(CS(=O)(=O)N(C)C2CCOCC2)c1 (relative stereo) [Example 160, trans-1-(3-((1-(2-cyclopropyl-6-methylbenzoyl)-4-methoxypyrrolidin-3-yl)oxy)phenyl)-N-methyl-N-(tetrahydro-2H-pyran-4-yl)methanesulfonamide] | 111% |
| CCc1cccc(C)c1C(=O)N1C[C@@H](OC)[C@H](Oc2cccc(NS(=O)(=O)N3CC4CC4C3)c2)C1 (stereo partly drawn) [Example 134, N-(3-(((3R,4R)-1-(2-ethyl-6-methylbenzoyl)-4-methoxypyrrolidin-3-yl)oxy)phenyl)-3-azabicyclo[3.1.0]hexane-3-sulfonamide] | 108% |
| CCc1cccc(C)c1C(=O)N1C[C@@H](OC)[C@H](Oc2cccc(CS(=O)(=O)N(C)C3CCOCC3)c2)C1 [Example 146, 1-(3-(((3R,4R)-1-(2-ethyl-6-methylbenzoyl)-4-methoxypyrrolidin-3-yl)oxy)phenyl)-N-methyl-N-(tetrahydro-2H-pyran-4-yl)methanesulfonamide] | 105% |
| COc1ccc(C)c(C)c1C(=O)N1C[C@@H](OC)[C@H](Oc2cccc(CS(=O)(=O)N(C)C3CCOCC3)c2)C1 (relative stereo) [Example 162, trans-1-(3-((4-methoxy-1-(6-methoxy-2,3-dimethylbenzoyl)pyrrolidin-3-yl)oxy)phenyl)-N-methyl-N-(tetrahydro-2H-pyran-4-yl)methanesulfonamide] | 96% |
| CO[C@@H]1CN(C(=O)c2cc(C)ccc2C)C[C@H]1Oc1cccc(NS(=O)(=O)N(C)C2CCOCC2)c1 (relative stereo) [Example 47, trans-N′-(3-((1-(2,5-dimethylbenzoyl)-4-methoxypyrrolidin-3-yl)oxy)phenyl)-N-methyl-N-(tetrahydro-2H-pyran-4-yl)sulfuric diamide] | 106% |
| COC1CN(C(=O)c2cc(C)ccc2C)CC1Oc1cccc(CS(=O)(=O)N2CCCC2c2ccccc2C)c1 (stereo not drawn) [Example 41, trans-(2,5-dimethylphenyl)(3-methoxy-4-(3-(((2-(2-methylphneyl)pyrrolidin-1-yl)sulfonyl)methyl)phenoxy)pyrrolidin-1-yl)methanone] | 75% |
| CO[C@@H]1CN(C(=O)c2cc(C)ccc2C)C[C@H]1Oc1cccc(NS(=O)(=O)N2CC3CC3C2)c1 (stereo partly drawn) [Example 109, N-(3-(((3R,4R)-1-(2,5-dimethylbenzoyl)-4-methoxypyrrolidin-3-yl)oxy)phenyl)-3-azabicyclo[3.1.0]hexane-3-sulfonamide] | 84% |
| CO[C@@H]1CN(C(=O)c2cc(C)ccc2C)C[C@H]1Oc1cccc(NS(=O)(=O)N2CCCC2c2ccncc2)c1 (relative stereo) [Example 52, trans-N-(3-((1-(2,5-dimethylbenzoyl)-4-methoxypyrrolidin-3-yl)oxy)phenyl)-2-(pyridin-4-yl)pyrrolidine-1-sulfonamide] | 83% |
| CO[C@@H]1CN(C(=O)c2cc(C)ccc2C)C[C@H]1Oc1cccc(CS(=O)(=O)N2CCC23CN(C(=O)OC(C)(C)C)C3)c1 (relative stereo) [Example 32, tert-butyl trans-1-((3-((1-(2,5-dimethylbenzoyl)-4-methoxypyrrolidin-3-yl)oxy)benzyl)sulfonyl)-1,6-diazaspiro[3.3]heptane-6-carboxylate] | 109% |
| COC1CN(C(=O)c2cc(C)ccc2C)CC1Oc1cccc(NS(=O)(=O)N2CC[C@H]3CCN(C)C[C@@H]32)c1 (relative stereo) [Example 76, trans-N-(3-((1-(2,5-dimethylbenzoyl)-4-methoxypyrrolidin-3-yl)oxy)phenyl)-6-methyloctahydro-1H-pyrrolo[2,3-c]pyridine-1-sulfonamide] | 82% |
| CO[C@@H]1CN(C(=O)c2cc(C)ccc2C)C[C@H]1Oc1cccc(CS(=O)(=O)N2CCCC2c2cnccn2)c1 (relative stereo) [Example 39, trans-(2,5-dimethylphenyl)(3-methoxy-4-(3-(((2-(pyrazin-2-yl)pyrrolidin-1-yl)sulfonyl)methyl)phenoxy)pyrrolidin-1-yl)methanone] | 76% |

Results, then the compound that gave them:

| OX2R agonist activity (3 μM, %) | SMILES |
| --- | --- |
| 102% | CO[C@@H]1CN(C(=O)c2cc(C)ccc2C)C[C@H]1Oc1cccc(CS(=O)(=O)N2CCCC2c2ccc(C)nc2C)c1 (relative stereo) [Example 123, trans-(2,5-dimethylphenyl)(3-(3-(((2-(2,6-dimethylpyridin-3-yl)pyrrolidin-1-yl)sulfonyl)methyl)phenoxy)-4-methoxypyrrolidin-1-yl)methanone] |
| 70% | CO[C@@H]1CN(C(=O)c2cc(C)ccc2C)C[C@H]1Oc1cc(F)cc(CS(=O)(=O)N2CCCC2c2ccccn2)c1 (relative stereo) [Example 91, trans-(2,5-dimethylphenyl)(3-(3-fluoro-5-(((2-(pyridin-2-yl)pyrrolidin-1-yl)sulfonyl)methyl)phenoxy)-4-methoxypyrrolidin-1-yl)methanone] |
| 68% | COC1CN(C(=O)c2cc(C)ccc2C)CC1Oc1cc(NS(=O)(=O)N2C[C@@H]3C[C@H]3C2)cc(F)n1 (relative stereo) [Example 116, trans-N-(2-((1-(2,5-dimethylbenzoyl)-4-methoxypyrrolidin-3-yl)oxy)-6-fluoropyridin-4-yl)-3-azabicyclo[3.1.0]hexane-3-sulfonamide] |
| 93% | COc1cccc(OC)c1C(=O)N1C[C@@H](OC)[C@H](Oc2cccc(CS(=O)(=O)N3CCCC3c3ccccn3)c2)C1 (relative stereo) [Example 100, trans-(2,6-dimethoxyphenyl)(3-methoxy-4-(3-(((2-(pyridin-2-yl)pyrrolidin-1-yl)sulfonyl)methyl)phenoxy)pyrrolidin-1-yl)methanone] |
| 108% | CCc1cccc(C)c1C(=O)N1C[C@@H](OC)[C@H](Oc2cccc(CS(=O)(=O)N(C)C3CCOCC3)c2)C1 (relative stereo) [Example 155, trans-1-(3-((-1-(2-ethyl-6-methylbenzoyl)-4-methoxypyrrolidin-3-yl)oxy)phenyl)-N-methyl-N-(tetrahydro-2H-pyran-4-yl)methanesulfonamide] |
| 110% | CCc1cccc(C)c1C(=O)N1C[C@@H](OC)[C@H](Oc2cccc(CS(=O)(=O)N(C)[C@@H]3C[C@H]4CC[C@@H](C3)O4)c2)C1 [Example 149, 1-(3-(((3R,4R)-1-(2-ethyl-6-methylbenzoyl)-4-methoxypyrrolidin-3-yl)oxy)phenyl)-N-methyl-N-((3-exo)-8-oxabicyclo[3.2.1]oct-3-yl)methanesulfonamide] |
| 77% | CO[C@@H]1CN(C(=O)c2cc(C)ccc2C)C[C@H]1Oc1cccc(CS(=O)(=O)N2CCCC2c2cccnc2)c1 (relative stereo) [Example 16, trans-(2,5-dimethylphenyl)(3-methoxy-4-(3-(((2-(pyridin-3-yl)pyrrolidin-1-yl)sulfonyl)methyl)phenoxy)pyrrolidin-1-yl)methanone] |
